Data reported in patent publication US20250163038A1, “CBL-B MODULATORS AND USES THEREOF” (Nimbus Clio, Inc., priority 2021, published 2025).
Like-named read-outs stand apart in the source and are kept apart here.

Experiments:
[1] = target: Recombinant human Cbl-b (aa 36-427) (Homo sapiens, UniProt Q13191); test: Cbl-b Biochemical Assay (TR-FRET)
[2] = system: Jurkat (clone E6-1) cells with NFAT luciferase reporter; test: Jurkat reporter assay (NFAT Luciferase); type: cell-based; details: Homo sapiens; Jurkat NFAT luciferase reporter cells, anti-CD3 stimulation, 6 hr; read-out: Jurkat NFAT EC50
[3] = target: T1, Recombinant human c-Cbl (aa 47-435) (Homo sapiens, UniProt P22681); test: c-Cbl Biochemical Assay (TR-FRET)
T1 sequence (P22681 47-435): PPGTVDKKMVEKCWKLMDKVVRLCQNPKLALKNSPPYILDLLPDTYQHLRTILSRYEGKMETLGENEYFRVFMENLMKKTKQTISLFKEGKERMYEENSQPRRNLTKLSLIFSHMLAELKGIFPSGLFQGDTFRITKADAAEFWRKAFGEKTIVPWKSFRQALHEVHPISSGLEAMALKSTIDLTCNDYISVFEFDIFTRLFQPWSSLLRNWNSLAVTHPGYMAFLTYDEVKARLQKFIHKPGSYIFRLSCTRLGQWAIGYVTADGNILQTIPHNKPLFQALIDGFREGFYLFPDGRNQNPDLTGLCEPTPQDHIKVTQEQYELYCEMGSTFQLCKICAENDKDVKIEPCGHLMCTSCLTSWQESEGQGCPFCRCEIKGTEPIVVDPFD

[4] = hc-Cbl Biochemical Assay (TR-FRET), read-out: TR-FRET hcCbl IC50

Chain of Recombinant human Cbl-b (aa 36-427) (Q13191 36-427): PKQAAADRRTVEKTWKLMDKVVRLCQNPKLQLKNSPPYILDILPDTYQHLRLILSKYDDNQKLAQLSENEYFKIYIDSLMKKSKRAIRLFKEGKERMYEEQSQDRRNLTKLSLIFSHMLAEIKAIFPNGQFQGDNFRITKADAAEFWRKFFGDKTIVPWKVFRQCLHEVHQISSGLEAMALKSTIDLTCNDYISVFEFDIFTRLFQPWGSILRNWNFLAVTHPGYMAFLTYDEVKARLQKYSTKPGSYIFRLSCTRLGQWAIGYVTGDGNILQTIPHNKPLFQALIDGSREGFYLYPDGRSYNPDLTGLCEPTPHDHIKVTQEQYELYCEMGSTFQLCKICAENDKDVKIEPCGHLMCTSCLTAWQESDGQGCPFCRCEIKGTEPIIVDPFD

IC50 ([1]; read-out: TR-FRET hCbl-b IC50)	EC50 [2]	IC50 [3, 4]	Structure (SMILES)	IC50 [1]	IC50 [3]
200 to 1000 nM	10000 to 50000 nM	200 to 1000 nM	CCNc1cc(-c2ccc(F)cc2-c2nncn2C)cc(-c2nc3cc(CO)cc(C(F)(F)F)c3o2)n1 [AEL-1, {2-[6-(Ethylamino)-4-[4-fluoro-2-(4-methyl-1,2,4-triazol-3-yl)-phenyl]-pyridin-2-yl]-7-(trifluoromethyl)-1,3-benzoxazol-5-yl}-methanol]		
< 200 nM	< 200 nM	< 200 nM	COCCNCc1ccc2oc(-c3cc(-c4ccc(Cl)cc4-c4nncn4C)cc(C4CC4)n3)nc2c1 [AEM-1]		
< 200 nM	200 to 1000 nM	200 to 1000 nM	COCCNCc1ccc2oc(-c3cc(-c4ccc(C#N)cc4-c4nncn4C)cc(C4CC4)n3)nc2c1 [AEN-15, 4-[2-Cyclopropyl-6-(5-{1[(2-methoxyethyl)amino]methyl}-1,3-benzoxazol-2-yl)pyridin-4-yl]-3-(4-methyl-1,2,4-triazol-3-yl)benzonitrile]		
< 200 nM	< 200 nM	< 200 nM	Cn1cnnc1-c1cc(C#N)ccc1-c1cc(-c2nc3cc(CNCC4CCC4)ccc3o2)nc(C2CC2)c1 [AEO-1, 4-[2-(5-{[(Cyclobutylmethyl)amino]methyl}-1,3-benzoxazol-2-yl)-6-cyclopropylpyridin-4-yl]-3-(4-methyl-1,2,4-triazol-3-yl)benzonitrile]		
200 to 1000 nM	1000 to 10000 nM	200 to 1000 nM	Cn1cnnc1-c1cc(F)ccc1-c1cc(-c2nc3cc(CO)ccc3o2)cc(C2CC2)c1 [AEP-2, {2-[5-cyclopropyl-4′-fluoro-2′-(4-methyl-1,2,4-triazol-3-yl)-[1,1′-biphenyl]-3-yl]-1,3-benzoxazol-5-yl}methanol]		
< 200 nM	< 200 nM	< 200 nM	Cn1cnnc1-c1cc(F)ccc1-c1cc(-c2nc3cc(CN[C@@H]4CCC[C@@H]4O)ccc3o2)cc(C2CC2)c1 [AEQ-2, (1S,2R)-2-[({2-[5-Cyclopropyl-4′-fluoro-2′-(4-methyl-1,2,4-triazol-3-yl)-[1,1′-biphenyl]-3-yl]-1,3-benzoxazol-5-yl}methyl)amino]cyclopentan-1-ol]		
< 200 nM	< 200 nM	< 200 nM	Cn1cnnc1-c1cc(Cl)ccc1-c1ccnc(-c2nc3cc(CN[C@@H]4CCC[C@@H]4O)cc(C(F)(F)F)c3o2)c1 [AER-8, (1S,2R)-2-(((2-(4-(4-Chloro-2-(4-methyl-4H-1,2,4-triazol-3-yl)phenyl)pyridin-2-yl)-7-(trifluoromethyl)benzo[d]oxazol-5-yl)methyl)amino)cyclopentan-1-ol]		
200 to 1000 nM	1000 to 10000 nM	1000 to 10000 nM	Cc1cc(CO)cc2nc(-c3cc(-c4ccc(F)cc4-c4nncn4C)cc(C4CC4)n3)oc12 [AET-1, (2-{6-Cyclopropyl-4-[4-fluoro-2-(4-methyl-1,2,4-triazol-3-yl)phenyl]pyridin-2-yl}-7-methyl-1,3-benzoxazol-5-yl)methanol]		
< 200 nM	< 200 nM	< 200 nM	Cc1cc(CN[C@@H]2CCC[C@@H]2O)cc2nc(-c3cc(-c4ccc(F)cc4-c4nncn4C)cc(C4CC4)n3)oc12 [AEU-2, (1S,2R)-2-{[(2-{6-Cyclopropyl-4-[4-fluoro-2-(4-methyl-1,2,4-triazol-3-yl)phenyl]pyridin-2-yl}-7-methyl-1,3-benzoxazol-5-yl)methyl]amino}cyclopentan-1-ol]		
< 200 nM	< 200 nM	< 200 nM	Cc1cc(CNCC2(O)CCC2)cc2nc(-c3cc(-c4ccc(F)cc4-c4nncn4C)cc(C4CC4)n3)oc12 [AEV-1, 1-({[(2-{6-Cyclopropyl-4-[4-fluoro-2-(4-methyl-1,2,4-triazol-3-yl)phenyl]pyridin-2-yl}-7-methyl-1,3-benzoxazol-5-yl)methyl]amino}methyl)cyclobutan-1-ol]		
< 200 nM	< 200 nM	< 200 nM	CN(Cc1cc(C(F)(F)F)c2oc(-c3cc(-c4ccc(F)cc4-c4nncn4C)cc(C4CC4)n3)nc2c1)[C@@H]1CCC[C@@H]1O [AEW-1, (1S, 2R)-2-{1[(2-{6-Cyclopropyl-4-[4-fluoro-2-(4-methyl-1,2,4-triazol-3-yl)phenyl]pyridin-2-yl}-7-(trifluoromethyl)-1,3-benzoxazol-5-yl)methyl](methyl)amino}cyclopentan-1-ol]		
200 to 1000 nM	1000 to 10000 nM	1000 to 10000 nM	COc1cc(CO)cc2nc(-c3cc(-c4ccc(F)cc4-c4nncn4C)cc(C4CC4)n3)oc12 [AEX-2, (2-{6-Cyclopropyl-4-[4-fluoro-2-(4-methyl-1,2,4-triazol-3-yl)phenyl]pyridin-2-yl}-7-methoxy-1,3-benzoxazol-5-yl)methanol]		
< 200 nM	< 200 nM	< 200 nM	COc1cc(CN[C@@H]2CCC[C@@H]2O)cc2nc(-c3cc(-c4ccc(F)cc4-c4nncn4C)cc(C4CC4)n3)oc12 [AEY-2]		
< 200 nM	< 200 nM	< 200 nM	COCCNCc1cc(C)c2oc(-c3cc(-c4ccc(F)cc4-c4nncn4C)cc(C4CC4)n3)nc2c1 [AEZ-1, [(2-{6-Cyclopropyl-4-[4-fluoro-2-(4-methyl-1,2,4-triazol-3-yl)phenyl]pyridin-2-yl}-7-methyl-1,3-benzoxazol-5-yl)methyl](2-methoxyethyl)amine]		
< 200 nM	200 to 1000 nM	1000 to 10000 nM	Cn1cnnc1-c1cc(F)ccc1-c1cccc(-c2nc3cc(CN4CC(C)(O)C4)cc(C(F)(F)F)c3o2)c1 [AF-2, 1-((2-(4′-Fluoro-2′-(4-methyl-4H-1,2,4-triazol-3-yl)-[1,1′-biphenyl]-3-yl)-7-(trifluoromethyl)benzo[d]oxazol-5-yl)methyl)-3-methylazetidin-3-ol]		
200 to 1000 nM	1000 to 10000 nM	200 to 1000 nM	Cn1cnnc1-c1cc(F)ccc1-c1cc(-c2nc3cc(CO)cc(F)c3o2)nc(C2CC2)c1 [AFA-2, (2-{6-Cyclopropyl-4-[4-fluoro-2-(4-methyl-1,2,4-triazol-3-yl)phenyl]pyridin-2-yl}-7-fluoro-1,3-benzoxazol-5-yl)methanol]		
< 200 nM	< 200 nM	< 200 nM	Cn1cnnc1-c1cc(F)ccc1-c1cc(-c2nc3cc(CNCC4(O)CCC4)ccc3o2)nc(C2CC2)c1 [AFC-1, 1-({[(2-{6-Cyclopropyl-4-[4-fluoro-2-(4-methyl-1,2,4-triazol-3-yl)phenyl]pyridin-2-yl}-1,3-benzoxazol-5-yl)methyl]amino}methyl)cyclobutan-1-ol]		
< 200 nM	< 200 nM	< 200 nM	Cn1cnnc1-c1cc(F)ccc1-c1cc(-c2nc3cc(CNCC(C)(C)O)ccc3o2)nc(C2CC2)c1 [AFD-1, 1-{[(2-{6-Cyclopropyl-4-[4-fluoro-2-(4-methyl-1,2,4-triazol-3-yl)phenyl]pyridin-2-yl}-1,3-benzoxazol-5-yl)methyl]amino}-2-methylpropan-2-ol]		
< 200 nM	< 200 nM	< 200 nM	Cn1cnnc1-c1cc(F)ccc1-c1cc(-c2nc3cc(CNCC4(O)CCCC4)ccc3o2)nc(C2CC2)c1 [AFE-1, 1-({[(2-{6-Cyclopropyl-4-[4-fluoro-2-(4-methyl-1,2,4-triazol-3-yl)phenyl]pyridin-2-yl}-1,3-benzoxazol-5-yl)methyl]amino}methyl)cyclopentan-1-ol]		
< 200 nM	< 200 nM	< 200 nM	Cc1cc(CNCC2CCC2)cc2nc(-c3cc(-c4ccc(F)cc4-c4nncn4C)cc(C4CC4)n3)oc12 [AFF-1, 1-Cyclobutyl-N-((2-(6-cyclopropyl-4-(4-fluoro-2-(4-methyl-4H-1,2,4-triazol-3-yl)phenyl)pyridin-2-yl)-7-methylbenzo[d]oxazol-5-yl)methyl)methanamine]		
< 200 nM	200 to 1000 nM	200 to 1000 nM	Cc1cc(CN(C)CC2(O)CCC2)cc2nc(-c3cc(-c4ccc(F)cc4-c4nncn4C)cc(C4CC4)n3)oc12 [AFH-2, 1-({[(2-{6-Cyclopropyl-4-[4-fluoro-2-(4-methyl-1,2,4-triazol-3-yl)phenyl]pyridin-2-yl}-7-methyl-1,3-benzoxazol-5-yl)methyl](methyl)amino}methyl)cyclobutan-1-ol]		
< 200 nM	< 200 nM	< 200 nM	Cn1cnnc1-c1cc(F)ccc1-c1cc(-c2nc3cc(CNCC4(O)CCC4)cc(F)c3o2)nc(C2CC2)c1 [AFI-1, 1-({[(2-{6-Cyclopropyl-4-[4-fluoro-2-(4-methyl-1,2,4-triazol-3-yl)phenyl]pyridin-2-yl}-7-fluoro-1,3-benzoxazol-5-yl)methyl]amino}methyl)cyclobutan-1-ol]		

Structure (SMILES)	IC50 ([1]; read-out: TR-FRET hCbl-b IC50)	EC50 [2]	IC50 [3, 4]	IC50 [1]	IC50 [3]
Cn1cnnc1-c1cc(F)ccc1-c1cc(-c2nc3cc(CN[C@@H]4CCC[C@@H]4O)cc(F)c3o2)nc(C2CC2)c1 [AFB-2, (1S,2R)-2-{[(2-{6-Cyclopropyl-4-[4-fluoro-2-(4-methyl-1,2,4-triazol-3-yl)phenyl]pyridin-2-yl}-7-fluoro-1,3-benzoxazol-5-yl)methyl]amino}cyclopentan-1-ol]		< 200 nM		< 200 nM	< 200 nM
Cc1cc(CN(C)[C@@H]2CCC[C@@H]2O)cc2nc(-c3cc(-c4ccc(F)cc4-c4nncn4C)cc(C4CC4)n3)oc12 [AFG-1, (1S,2R)-2-(((2-(6-Cyclopropyl-4-(4-fluoro-2-(4-methyl-4H-1,2,4-triazol-3-yl)phenyl)pyridin-2-yl)-7-methylbenzo[d]oxazol-5-yl)methyl)(methyl)amino)cyclopentan-1-ol]		< 200 nM		< 200 nM	< 200 nM
